Reference: patent publication US20060089395A1, “Nf-kb activation inhibitors” (priority 2002, published 2006)

Assays:
[1] = system: IL-6; experiment: Inhibition of IL-6 production by TNFα stimulation in synovial fibroblasts derived from a rheumatoid patient (ELISA); type: cell-based, human; conditions: synovial fibroblasts, 10 ng/ml TNFα, 3 days; read-out: Inhibition against Mediator Release IC50(nM) IL-6
Protocol: Synovial fibroblasts (Human Synoviocyte (RA-Positive), Toyobo, T4040-05) were cultured for 3 days in a medium containing 10 ng/ml of TNFα and a test compound. IL-6 and IL-8 in the supernatant were measured by the ELISA method, and PGE2 (prostaglandin E2) was measured by the EIA method.

[2] = system: NF-κ B; experiment: Inhibitory activity of NF-κ B activation, luciferase reporter assay in HepG2 under TNF-α stimulation; type: cell-based, human; conditions: HepG2, TNF-α (40 ng/ml), 4 hours; for inhibition at 1 µg/mL / inhibition at 10 µg/mL: Homo sapiens; for Inhibitory Ratio of NF-κ B Activation(%) Drug Concentration 1 μg/mL / inhibition at 1 µg/mL: 1 μg/mL; for inhibition at 1 µg/mL: read-out: Inhibitory Ratio of NF-κ B Activation(%) Drug Concentration 1 μg/mL; for Inhibitory Ratio of NF-κ B Activation(%) Drug Concentration 10 μg/mL / inhibition at 10 µg/mL: 10 μg/mL; for inhibition at 10 µg/mL: read-out: Inhibitory Ratio of NF-κ B Activation(%) Drug Concentration 10 μg/mL
Outline: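 HepG2 cells transiently transfected with a luciferase reporter driven by five tandem NF-κB binding sites, then incubated 6–24 h. Stimulated with TNF-α (40 ng/ml) with or without test compound for 4 h. Intracellular luciferase read by chemiluminescence; inhibition expressed relative to activity without compound.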

Structure (SMILES)	IC50 [1]	Inhibitory Ratio of NF-κ B Activation(%) Drug Concentration 1 μg/mL [2]	Inhibitory Ratio of NF-κ B Activation(%) Drug Concentration 10 μg/mL [2]	inhibition at 1 µg/mL [2]	inhibition at 10 µg/mL [2]
O=C(Nc1cc(C(F)(F)F)cc(C(F)(F)F)c1)c1cc(C(F)(F)F)ccc1O [Compound No. 25]	452 nM	96.4%	99.6%		
O=C(Nc1cc(C(F)(F)F)ccc1Oc1ccc(Cl)cc1Cl)c1cc(Cl)ccc1O [Compound No. 111]		96.5%	99.7%		
CCC(C)(C)c1ccc(Oc2ccccc2)c(NC(=O)c2cc(Cl)ccc2O)c1 [Compound No. 164]		97.6%	98.3%		
CCOC(=O)c1sc(NC(=O)c2cc(Br)ccc2O)nc1-c1c(F)c(F)c(F)c(F)c1F [Compound No. 219, Ethyl 2-(5-bromo-2-hydroxybenzoyl)amino-4-(pentafluorophenyl)thiazole-5-carboxylate]				82.2%	96%
CCN(CC)S(=O)(=O)c1ccc(OC)c(NC(=O)c2cc(Cl)ccc2O)c1 [Compound No. 155]		11.2%	90.2%		
O=C(Nc1cc(C(F)(F)F)cc(C(F)(F)F)c1)c1cc2ccccc2cc1O [Compound No. 72]		94.6%	95.0%		
COc1ccc(OC)c(NC(=O)c2cc(Cl)ccc2O)c1 [Compound No. 158]		52.4%	96.8%		
Cc1cc(Br)cc(C(=O)Nc2cc(C(F)(F)F)cc(C(F)(F)F)c2)c1O [Compound No. 258]		>99.9%			
Cc1ccc(O)c(C(=O)Nc2cc(C(C)(C)C)cc(C(C)(C)C)c2)c1 [Compound No. 147]		38.9%	91.0%		
O=C(Nc1cc(C(F)(F)F)cc(C(F)(F)F)c1)c1cc(-c2ccccn2)ccc1O [Compound No. 32, N-[3,5-Bis(trifluoromethyl)phenyl]-2-hydroxy-5-(pyridin-2-yl)benzamide]				90.4%	99%
CC(C)C(=O)c1ccc(O)c(C(=O)Nc2cc(C(F)(F)F)cc(C(F)(F)F)c2)c1 [Compound No. 34, N-[3,5-Bis(trifluoromethyl)phenyl]-2-hydroxy-5-isobutyrylbenzamide]				90.7%	98.7%
CC(C)CCOc1ccc(OCCC(C)C)c(NC(=O)c2cc(Cl)ccc2O)c1 [Compound No. 162]		93.8%	97.9%		
Cc1ccc(O)c(C(=O)Nc2cc(C(F)(F)F)ccc2C)c1 [Compound No. 102]		89.3%	98.3%		
O=C(Nc1cc(C(F)(F)F)cc(C(F)(F)F)c1)c1cc(CCc2ccccc2)ccc1O [Compound No. 24]	593 nM	92.3%	98.3%		
COc1ccccc1Oc1ccc(C(F)(F)F)cc1NC(=O)c1cc(Cl)ccc1O [Compound No. 114]		91.8%	98.2%		
O=C(Nc1cc(Cl)cc(Cl)c1)c1cc2ccccc2cc1O [Compound No. 181]			95.1%		
